Measurements: patent publication US9006255B2, “Quinazoline derivatives” (Merck Patent GmbH, priority 2010, dated 2015)

What was measured:
[1] = biological target: DNA-PK protein complex (Homo sapiens, UniProt P78527); assay: DNA-PK kinase assay (FlashPlate, 33P-ATP); format: biochemical; details: biotin-DNA-PK peptide substrate, 5 μM ATP, 90 minutes at room temperature
Method: Description of the Method for the Testing of DNA-PK Inhibitors
The kinase assay is carried out in […] microtitre FlashPlates®, coated with streptavidin. 1.5 μg of the DNA-PK protein complex and […] of biotinylated substrate, for example PESQEAFADLWKK biotin-NH2 (“biotin-DNA-PK peptide”) in a total volume of 36.5 μl (34.25 mM Hepes/KOH, 7.85 mM Tris-HCl, 68.5 mM KCl, 5 μM ATP, 6.85 mM MgCl2, 0.5 mM EDTA, 0.14 mM EGTA, 0.69 mM DTT, pH 7.4), are incubated at room temperature for 90 minutes with or without test substance in a well containing 500 ng of DNA from calf thymus, 0.1 μCi of 33P-ATP and 1.8% of DMSO. The reaction is stopped by addition of 50 μl/well of 200 mM EDTA. After incubation for 30 minutes, the liquids are removed at room temperature. Each well is washed three times with 100 μl of 0.9% NaCl solution. Non-specific reaction (blank) is determined using a proprietary kinase inhibitor (10 μM). The radioactivity is measured by means of a Topcount. IC50 values calculated in RS1. Literature: Molecular Cancer Therapeutics 2003, 1257-1264; DNA-dependent protein kinase inhibitors as drug candidates for the treatment of cancer; A. Kashishian, H. Douangpanya, D. Clark, S. T. Schlachter, C. Todd Eary, J. G. Schiro, H. Huang, L. E. Burgess, E. A. Kesicki, and J. Halbrook.

[2] = tested on: PI3K; assay: Cellular testing of PI3K inhibitors: P-S473-PKB Luminex assay in PC3 cells; format: cell-based; details: phosphorylation of PKB at Serin 473, 30 min incubation, serum-free
Method: Description of the Method for the Cellular Testing of PI3K Inhibitors The measure used for the cellular PI3K activity is the PI3K-dependent phosphorylation of PKB at Serin 473. The cellular assay for determination of the P-S473-PKB level is carried out as a Luminex assay in 96-well format in PC3 cells. […] PC3 cells are sown out with 20,000 cells per well in 100 μl medium (45% RPMI1460/45% Ham's F12/10% FCS) and incubated on the following day for 30 min with a serial dilution of the test substance (7 concentrations) under serum-free conditions. The cells are subsequently lysed using 90 μl of lysis buffer (20 mM Tris/HCl pH 8.0, 150 mM NaCl, 1% NP40, 10% glycerol, 1% phosphatase inhibitor I, 1% phosphatase inhibitor II, 0.1% protease inhibitor cocktail III, 0.01% benzonase) per well, and the lysates are separated off from insoluble cell constituents by means of centrifugation through a 96-well filter plate (0.65 μm). The lysates are incubated overnight at 4° C. with shaking with Luminex beads to which an anti-total PKB antibody is coupled. The detection is carried out on the following day by addition of a P-S473-PKB antibody and a species-specific PE-labelled secondary antibody. The detection of P-S473-PKB is carried out by measurement in a Luminex100 instrument by determination of 100 events per cavity in a measurement time of 60 sec. As pharmacological blank, the signals obtained from cells which have been treated with 3 μM wortmannin are subtracted from all other preparations. The control value used for maximum phosphorylation of PKB at S473 are the signals from cells which have been treated only with the solvent (0.3% DMSO). The values of the preparations treated with test substance are calculated from this as percent of control, and IC50 values are determined by means of RS1.

Row | IC50 [1] [nM] | IC50 [2] [nM] | SMILES
1 | 1 to 100 | 1 to 100 | Cc1nc2cc(-c3ccc4ncnc(N5CCc6ccccc6C5)c4c3)cnc2[nH]1 [Compound A4, 4-(3,4-dihydro-1H-isoquinolin-2-yl)-6-(2-methyl-3H-imidazo[4,5-b]pyridin-6-yl)quinazoline]
2 | 1 to 100 | 100 to 10000 | c1ccc2c(c1)CCN2c1ncnc2ccc(-c3cnc4[nH]ccc4c3)cc12 [Compound A1, 4-(2,3-dihydroindol-1-yl)-6-(1H-pyrrolo[2,3-b]pyridin-5-yl)quinazoline]
3 | 1 to 100 | 100 to 10000 | c1ccc2c(c1)CCCN2c1ncnc2ccc(-c3cnc4[nH]ccc4c3)cc12 [Compound A3, 4-(3,4-dihydro-2H-quinolin-1-yl)-6-(1H-pyrrolo[2,3-b]pyridin-5-yl)quinazoline]
4 | 1 to 100 | 1 to 100 | COc1cc2c(cc1OC)CN(c1ncnc3ccc(-c4cnc5[nH]c(C)nc5c4)nc13)CC2 [Compound A9, 4-(6,7-dimethoxy-3,4-dihydro-1H-isoquinolin-2-yl)-6-(2-methyl-3H-imidazo[4,5-b]pyridin-6-yl)pyrido[3,2-d]pyrimidine]
5 | 1 to 100 | 100 to 10000 | Cc1nc2cc(-c3ccc4ncnc(N5CCCc6ccccc65)c4c3)cnc2[nH]1 [Compound A5, 4-(3,4-dihydro-2H-quinolin-1-yl)-6-(2-methyl-3H-imidazo-[4,5-b]pyridin-6-yl)quinazoline]
6 | 1 to 100 | 1 to 100 | COc1ccc2c(c1)CN(c1ncnc3ccc(-c4cnc5[nH]c(C)nc5c4)cc13)CC2 [Compound A11, 4-(7-methoxy-3,4-dihydro-1H-isoquinolin-2-yl)-6-(2-methyl-3H-imidazo[4,5-b]pyridin-6-yl)quinazoline]
7 | 1 to 100 | – | COc1cc2c(cc1OC)CN(c1ncnc3ccc(-c4cnc5[nH]ccc5c4)nc13)CC2 [Compound A7, 4-(6,7-dimethoxy-3,4-dihydro-1H-isoquinolin-2-yl)-6-(1H-pyrrolo[2,3-b]pyridin-5-yl)pyrido[3,2-d]pyrimidine]
8 | 1 to 100 | 100 to 10000 | Cc1nc2cc(-c3ccc4ncnc(N5CCC(=O)c6ccccc65)c4c3)cnc2[nH]1 [Compound A13, 1-[6-(2-methyl-3H-imidazo[4,5-b]pyridin-6-yl)quinazolin-4-yl]-2,3-dihydro-1H-quinolin-4-one]
9 | 1 to 100 | 100 to 10000 | Cc1nc2cc(-c3ccc4ncnc(N5CCOc6ccccc65)c4c3)cnc2[nH]1 [Compound A12, 4-[6-(2-methyl-3H-imidazo[4,5-b]pyridin-6-yl)quinazolin-4-yl]-3,4-dihydro-2H-benzo-1,4-oxazine]
10 | 1 to 100 | 100 to 10000 | c1ccc2c(c1)CCN(c1ncnc3ccc(-c4cnc5[nH]ccc5c4)nc13)C2 [Compound A6, 4-(3,4-dihydro-1H-isoquinolin-2-yl)-6-(1H-pyrrolo[2,3-b]pyridin-5-yl)pyrido[3,2-d]pyrimidine]
11 | 1 to 100 | 1 to 100 | Cc1nc2cc(-c3ccc4ncnc(N5CCc6ccccc6C5)c4n3)cnc2[nH]1 [Compound A8, 4-(3,4-dihydro-1H-isoquinolin-2-yl)-6-(2-methyl-3H-imidazo[4,5-b]pyridin-6-yl)-pyrido[3,2-d]pyrimidine]
12 | 1 to 100 | 100 to 10000 | c1ccc2c(c1)CN(c1ncnc3ccc(-c4cnc5[nH]ccc5c4)cc13)C2 [Compound A2, 4-(1,3-dihydroisoindol-2-yl)-6-(1H-pyrrolo[2,3-b]pyridin-5-yl)quinazoline]
13 | 1 to 100 | 1 to 100 | CCc1nc2cc(-c3ccc4ncnc(N5CCc6ccccc6C5)c4c3)cnc2[nH]1 [Compound A10, 4-(3,4-dihydro-1H-isoquinolin-2-yl)-6-(2-ethyl-3H-imidazo[4,5-b]pyridin-6-yl)quinazoline]
